In patent publication EP4678629A1, “IONIZABLE LIPID MOLECULE, PREPARATION METHOD THEREFOR AND USE THEREOF” (Maxirna (Shanghai) Pharmaceutical Co., Ltd., priority 2023, dated 2024):

Experiments:
[1] = Size and polydispersity index (PDI) of the lipid nanoparticle by dynamic light scattering; format: physicochemical; settings: LNP encapsulating eGFP mRNA, ionizable lipid/DOPE/cholesterol/DMG-PEG2000 50/10/48.25/1.25 mol%, N/P 12; for Particle size: in nm (unit assumed)
Experimental: (§1) The ionizable lipid compound and positive control 1 from Example I were dissolved in ethanol at a molar ratio of 50:10:48.25:1.25 with DOPE, cholesterol, and DMG-PEG2000 (all purchased from A.V.T (Shanghai) Pharmaceutical Co., Ltd.) to prepare an ethanol lipid solution. The enhanced green fluorescent protein (eGFP) mRNA was diluted in 20 mM citrate buffer (pH=6.1) to obtain an mRNA aqueous solution. By using a microfluidic device (Micro&Nano Biologics Co., Ltd., model: INano ™ L) mix ethanol lipid solution and mRNA aqueous solution in a volume ratio of 1:3 to prepare a lipid nanoparticle with a total lipid to mRNA N/P ratio of 12. The medium was replaced by ultrafiltration, ethanol was removed and volumed with DPBS. Finally, the lipid nanoparticle was filtered through a 0.2 µm sterile filter to obtain an LNP preparation encapsulating eGFP mRNA using ionizable lipid/DOPE/cholesterol/DMG-PEG2000 (50/10/48.25/1.25 mol%), with an mRNA content of 0.002 mg/ml-0.5 mg/mL.
(§2) Using Malvern Zetasizer Nano ZS (Malvern UK), the size and polydispersity index (PDI) of the lipid nanoparticle were determined by dynamic light scattering in 173° backscatter detection mode, and the encapsulation efficiency was measured by Ribogreen method.

[2] = Encapsulation efficiency of the lipid nanoparticle (eGFP mRNA) by Ribogreen method; format: physicochemical; settings: LNP encapsulating eGFP mRNA, ionizable lipid/DOPE/cholesterol/DMG-PEG2000 50/10/48.25/1.25 mol%, N/P 12
Experimental: as §1, §2

[3] = In vitro transfection of cells with eGFP-mRNA lipid nanoparticle (LNP preparation), fluorescence imaging and flow cytometry; format: cell-based, mouse; settings: mouse, dc2.4 cells, 200 ng of mRNA per well, after 24 hours; read-out: Cell viability, %
From the text: (§3) This example used mouse bone marrow-derived dendritic cells DC2.4 (purchased from Millipore) as the validation cell line for a lipid nanoparticle transfection experiment. DC2.4 cells adhered to the wall for growth. All operational steps of cell culture strictly followed the prescribed procedures, using sterile reagents for aseptic operations under a sterile workbench. The main operational steps involved were as follows: • 1) Cell recovery: the preserved cell cryopreservation solution was removed from the -80 °C freezer and immediately placed in a 37 °C water bath for rapid and continuous shaking, allowing it to completely melt within one minute. Fresh culture medium was added to a 15 mL centrifuge tube in advance, and the cell fluid was added to the centrifuge tube in a biosafety cabinet. A centrifuge tube of the same mass was taken, placed symmetrically in the centrifuge, and centrifuged at low speed for 5 minutes at 1200 rpm. After centrifugation, the upper clear liquid was removed, and an appropriate amount of culture medium was slowly added along the tube wall. After the cells were gently blown and dispersed evenly, the cell suspension was drawn and added to the prepared culture bottle. The state and distribution of cells in the early stage of recovery were observed under a microscope. The culture bottle was incubated in a 5% CO2 incubator at 37 °C, and the recovery time was recorded. • 2) Cell passaging: Under a microscope, if the cell density in the field of view reached 80%-90%, cells could be passaged and cultured. Adherent cells required trypsin digestion. In order to avoid residual serum in the culture medium reducing trypsin activity, the original culture medium was removed, and DPBS solution was added to wash once. After suctioning out the DPBS solution, trypsin was added to degrade the protein at the intercellular junction, thereby separating the cells and facilitating further cultivation. The mixture was gently shaken well and placed into the incubator for digestion for 2-3 minutes. After digestion was complete, an appropriate amount of culture medium was immediately added to the original culture dish to terminate digestion. Finally, a pipette was used to carefully blow off the cells and blow them until they were evenly dispersed, and then the cells were inoculated and subcultured in a certain proportion according to experimental requirements.
(§4) Transfection of DC2.4 cells • 1) DC2.4 cell recovery: the frozen DC2.4 cells were taken out from the -80 °C refrigerator and immediately put into a 37 °C water bath for rapid thawing. After melting, they were added to the preheated culture medium, and centrifuged at 1200 rpm for 5 minutes. The supernatant was discarded, and an appropriate amount of DMEM medium containing 10% FBS was added to resuspend the recovered DC2.4 cells, which were placed in a 37 °C, 5% CO2 incubator for activation culture. • 2) According to experimental requirements, DC2.4 cells were transfected into 24 well plates one day in advance. By counting cells, the number and viability of cells were recorded, and a cell suspension with 2 × 10^5 cells per well were taken. Then, a certain volume of DMEM medium containing 10% FBS was added and mixed evenly, wherein 1 mL was added per well for subsequent transfection experiments. • 3) After 24 hours, the culture medium was gently aspirated with a pipette 30 minutes in advance, and each well was washed with 1 mL of DPBS and aspirated. […] The mixture was placed in a 37 °C, 5% CO2 incubator for activation cultivation. • 6) After 24 hours, cell viability (%), eGFP positivity rate (%), and mean fluorescence intensity data were obtained through cell fluorescence imaging and flow cytometry.

DC2.4 cells = test: as above; format: cell-based, mouse; settings: eGFP positivity rate, DC2.4 cells, 200 ng of mRNA per well, after 24 hours
From the text: as §3, §4

CCCCCCCCCCCCCOC(=O)CCCN(CCO)CCCN(CCCC(=O)OCCCCCCCCCCCCC)CCCC(=O)OCCCCCCCCCCCCC [Example 62, Ditridecyl 4,4'-((3-((2-hydroxyethyl)(4-oxo-4-(tridecyloxy)butyl)amino)propyl)azanediyl)dibutanoate]
PDI [1]: 0.16 | Particle size [1]: 99.80 | Encapsulation rate, % [2]: 99.32% | viability at 24 h [3]: 59% | Positive rate, % (DC2.4 cells): 96.24%

CCCCCCCCCCCCCOC(=O)CCCN(CCCO)CCCCCN(CCCC(=O)OCCCCCCCCCCCCC)CCCC(=O)OCCCCCCCCCCCCC [Example 100, 4,4'-ditridecyl((5-((3-hydroxypropyl)(4-oxo-4-(tridecyloxy)butyl)amino)pentyl)azetidinyl)dibutanoate]
PDI [1]: 0.16 | Encapsulation rate, % [2]: 92.32% | viability at 24 h [3]: 99% | Positive rate, % (DC2.4 cells): 93.24%

CCCCCOC(=O)CCCCCCCN(CCO)CCCN(CCCCCCCC(=O)OCCCCC)CCCCCCCC(=O)OCCCCC [Example 5, Dipentyl 8,8'-((3-((2-hydroxyethyl)(8-oxo-8-(pentyloxy)octyl)amino)propyl)azanediyl)dioctanoate]
PDI [1]: 0.16 | Encapsulation rate, % [2]: 94.14% | viability at 24 h [3]: 86.6% | Positive rate, % (DC2.4 cells): 83.41%

CCCCC/C=C\C/C=C\CCCCCCCCOC(=O)CCCCN(CCCO)CCCN(CCCCC(=O)OCCCCCCCC/C=C\C/C=C\CCCCC)CCCCC(=O)OCCCCCCCC/C=C\C/C=C\CCCCC [Example 111]
PDI [1]: 0.12 | Particle size [1]: 96.92 | Encapsulation rate, % [2]: 92.91% | viability at 24 h [3]: 91% | Positive rate, % (DC2.4 cells): 95.82%

CCCCCC/C=C\COC(=O)CCCCCN(CCO)CCCN(CCCCCC(=O)OC/C=C\CCCCCC)CCCCCC(=O)OC/C=C\CCCCCC [Example 25, Di((Z)-non-2-en-1-yl)6,6'-((3-((2-hydroxyethyl)(6-(((Z)-non-2-en-1-yl)oxo)-6-oxohexyl)amino)propyl)azanediyl)dihexanoate]
PDI [1]: 0.17 | Encapsulation rate, % [2]: 98.27% | viability at 24 h [3]: 76.6% | Positive rate, % (DC2.4 cells): 94.29%

CCCCCC/C=C\COC(=O)CCCN(CCO)CCCN(CCCC(=O)OC/C=C\CCCCCC)CCCC(=O)OC/C=C\CCCCCC [Example 16, Di((Z)-non-2-en-1-yl)4,4'-((3-((2-hydroxyethyl)(4-(((Z)-non-2-en-1-yl)oxo)-4-oxobutyl)amino)propyl)azanediyl)dibutanoate]
PDI [1]: 0.18 | Particle size [1]: 99.65 | Encapsulation rate, % [2]: 86.73% | viability at 24 h [3]: 84.6% | Positive rate, % (DC2.4 cells): 94.18%

CCCCCCCCCCCOC(=O)CCCN(CCO)CCCCN(CCCC(=O)OCCCCCCCCCCC)CCCC(=O)OCCCCCCCCCCC [Example 87]
PDI [1]: 0.12 | Particle size [1]: 72.55 | Encapsulation rate, % [2]: 92.26% | viability at 24 h [3]: 97.5% | Positive rate, % (DC2.4 cells): 96.15%

CCCCCCCCCCCOC(=O)CCCCCCCCCN(CCO)CCCN(CCCCCCCCCC(=O)OCCCCCCCCCCC)CCCCCCCCCC(=O)OCCCCCCCCCCC [Example 14, Diundecyl 10,10'-((3-((2-hydroxyethyl)(10-oxo-10-(undecyloxy)decyl)amino)propyl)azanediyl)dicaprate]
PDI [1]: 0.21 | Particle size [1]: 98.45 | Encapsulation rate, % [2]: 97.23% | viability at 24 h [3]: 97.9% | Positive rate, % (DC2.4 cells): 95.61%

CCCCCCCCCCCCCOC(=O)CCCCN(CCO)CCCN(CCCCC(=O)OCCCCCCCCCCCCC)CCCCC(=O)OCCCCCCCCCCCCC [Example 39, Ditridecyl 5,5'-((3-((2-hydroxyethyl)(5-oxo-5-(tridecyloxy)pentyl)amino)propyl)azadiyl)dipentanoate]
PDI [1]: 0.13 | Particle size [1]: 89.31 | Encapsulation rate, % [2]: 97.58% | viability at 24 h [3]: 96.9% | Positive rate, % (DC2.4 cells): 91.26%

CCCCCCCCCCCOC(=O)CCCCCCCN(CCCCO)CCCN(CCCCCCCC(=O)OCCCCCCCCCCC)CCCCCCCC(=O)OCCCCCCCCCCC [Example 20, Diundecyl 8,8'-((3-((4-hydroxybutyl)(8-oxo-8-(undecyloxy)octyl)amino)propyl)azanediyl)dioctanoate]
PDI [1]: 0.18 | Particle size [1]: 89.98 | Encapsulation rate, % [2]: 79.02% | viability at 24 h [3]: 83.8% | Positive rate, % (DC2.4 cells): 93.27%

CCCCC/C=C\C/C=C\CCCCCCCCOC(=O)CCCN(CCCO)CCCCN(CCCC(=O)OCCCCCCCC/C=C\C/C=C\CCCCC)CCCC(=O)OCCCCCCCC/C=C\C/C=C\CCCCC [Example 104]
PDI [1]: 0.16 | Encapsulation rate, % [2]: 95.12% | viability at 24 h [3]: 96.7% | Positive rate, % (DC2.4 cells): 92.63%

CCCCCCCCCCCOC(=O)CCCCN(CCCO)CCCN(CCCCC(=O)OCCCCCCCCCCC)CCCCC(=O)OCCCCCCCCCCC [Example 42, Diundecyl 5,5'-((3-((3-hydroxypropyl)(5-oxo-5-(undecyloxy)pentyl)amino)propyl)azadiyl)dipentanoate]
PDI [1]: 0.11 | Particle size [1]: 98.73 | Encapsulation rate, % [2]: 98.13% | viability at 24 h [3]: 94.1% | Positive rate, % (DC2.4 cells): 96.69%

CCCCCCCCCCCCOC(=O)CCCN(CCCO)CCCN(CCCC(=O)OCCCCCCCCCCCC)CCCC(=O)OCCCCCCCCCCCC [Example 112, 4,4'-didodecyl((3-((4-(dodecoxy)-4-oxobutyl)(3-hydroxypropyl)amino)propyl)azetidinyl)dibutanoate]
PDI [1]: 0.11 | Particle size [1]: 89.42 | Encapsulation rate, % [2]: 91.22% | viability at 24 h [3]: 92.3% | Positive rate, % (DC2.4 cells): 95.39%

CCCCCCCCCCCCOC(=O)CCCCCCN(CCCO)CCCN(CCCCCCC(=O)OCCCCCCCCCCCC)CCCCCCC(=O)OCCCCCCCCCCCC [Example 48, Didodecyl 7,7'-((3-((7-(dodecyloxy)-7-oxoheptyl)(3-hydroxypropyl)amino)propyl)azanediyl)diheptanoate]
PDI [1]: 0.16 | Particle size [1]: 76.18 | Encapsulation rate, % [2]: 99.52% | viability at 24 h [3]: 94% | Positive rate, % (DC2.4 cells): 97.26%

CCCCCCCCCCCOC(=O)CCCCCN(CCCO)CCCN(CCCCCC(=O)OCCCCCCCCCCC)CCCCCC(=O)OCCCCCCCCCCC [Example 27, Diundecyl 6,6'-((3-((3-hydroxypropyl)(6-oxo-6-(undecyloxy)hexyl)amino)propyl)azanediyl)dihexanoate]
PDI [1]: 0.12 | Particle size [1]: 88.43 | Encapsulation rate, % [2]: 99.65% | viability at 24 h [3]: 98.2% | Positive rate, % (DC2.4 cells): 97.36%

CCCCCCCCCCCCOC(=O)CCCCCN(CCO)CCCN(CCCCCC(=O)OCCCCCCCCCCCC)CCCCCC(=O)OCCCCCCCCCCCC [Example 44, Didodecyl 6,6'-((3-((6-(dodecoxy)-6-oxohexyl)(2-hydroxyethyl)amino)propyl)azahexyl)dihexanoate]
PDI [1]: 0.20 | Encapsulation rate, % [2]: 99.38% | viability at 24 h [3]: 91.9% | Positive rate, % (DC2.4 cells): 94.2%
